Reference: ChEMBL document CHEMBL1139950, “Derivatives of oxoisoaporphine alkaloids: a novel class of selective acetylcholinesterase inhibitors” (Bioorg Med Chem Lett, 2007)

How the values were obtained:
[1] = Selectivity for electric eel AChE over equine serum BuChE
[2] = target: Acetylcholinesterase (Electrophorus electricus, UniProt O42275); assay: Inhibition of electric eel AChE
[3] = target: Butyrylcholinesterase (Equus caballus, UniProt Q9N1N9); assay: Inhibition of equine serum BuChE
Butyrylcholinesterase, sequence (Q9N1N9 whole entry): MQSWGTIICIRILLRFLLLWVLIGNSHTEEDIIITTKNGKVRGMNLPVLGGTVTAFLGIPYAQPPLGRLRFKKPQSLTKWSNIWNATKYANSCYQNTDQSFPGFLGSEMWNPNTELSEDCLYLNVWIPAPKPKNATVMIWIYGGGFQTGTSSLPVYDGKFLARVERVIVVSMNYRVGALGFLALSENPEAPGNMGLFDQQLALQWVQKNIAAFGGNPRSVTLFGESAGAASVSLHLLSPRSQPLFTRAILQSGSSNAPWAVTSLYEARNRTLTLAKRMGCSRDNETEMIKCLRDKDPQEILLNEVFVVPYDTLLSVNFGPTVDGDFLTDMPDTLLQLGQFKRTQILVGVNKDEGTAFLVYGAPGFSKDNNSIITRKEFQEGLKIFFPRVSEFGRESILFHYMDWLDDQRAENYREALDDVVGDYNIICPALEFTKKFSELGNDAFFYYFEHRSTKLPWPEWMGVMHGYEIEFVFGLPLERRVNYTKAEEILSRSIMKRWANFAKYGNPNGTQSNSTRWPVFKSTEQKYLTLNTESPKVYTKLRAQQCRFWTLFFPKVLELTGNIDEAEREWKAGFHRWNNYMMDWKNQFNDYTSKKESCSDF

Acetylcholinesterase, sequence (O42275 whole entry): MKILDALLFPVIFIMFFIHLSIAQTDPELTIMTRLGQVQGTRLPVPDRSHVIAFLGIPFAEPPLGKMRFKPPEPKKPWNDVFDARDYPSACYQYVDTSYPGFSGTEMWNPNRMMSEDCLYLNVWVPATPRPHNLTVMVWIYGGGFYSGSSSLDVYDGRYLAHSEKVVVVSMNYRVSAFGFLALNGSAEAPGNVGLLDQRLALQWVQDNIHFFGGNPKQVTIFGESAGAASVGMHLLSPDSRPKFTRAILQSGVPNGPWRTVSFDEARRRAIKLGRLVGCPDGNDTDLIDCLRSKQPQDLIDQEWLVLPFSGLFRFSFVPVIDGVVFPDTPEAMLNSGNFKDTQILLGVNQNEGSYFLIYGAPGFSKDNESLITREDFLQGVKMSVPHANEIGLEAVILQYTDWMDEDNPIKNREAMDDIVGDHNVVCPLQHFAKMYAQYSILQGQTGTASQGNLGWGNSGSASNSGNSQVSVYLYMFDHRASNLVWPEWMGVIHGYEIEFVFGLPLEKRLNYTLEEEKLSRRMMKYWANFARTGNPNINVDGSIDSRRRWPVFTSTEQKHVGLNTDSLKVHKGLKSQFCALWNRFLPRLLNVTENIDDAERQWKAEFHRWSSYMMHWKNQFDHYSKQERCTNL

## C[N+](C)(C)CC(=O)Nc1ccc2c(c1)C(=O)c1cccc3ccnc-2c13
[1]
  Ratio IC50: 88
[2]
  IC50: 0.0149 µM
[3]
  IC50: 1.31 µM

## CCN(CC)CCC(=O)Nc1ccc2c(c1)C(=O)c1cccc3ccnc-2c13
[1]
  Ratio IC50: 523
[2]
  IC50: 0.0116 µM
[3]
  IC50: 6.06 µM

## O=C(CCN1CCCC1)Nc1ccc2c(c1)C(=O)c1cccc3ccnc-2c13
[1]
  Ratio IC50: 980
[2]
  IC50: 0.00247 µM
[3]
  IC50: 2.41 µM

## Nc1ccc2c(c1)C(=O)c1cccc3ccnc-2c13
[2]
  IC50: 26.9 µM
[3]
  IC50: 100 µM

## C[N+](C)(C)CCC(=O)Nc1ccc2c(c1)C(=O)c1cccc3ccnc-2c13
[1]
  Ratio IC50: 590
[2]
  IC50: 0.00481 µM
[3]
  IC50: 2.82 µM

## C[N+]1(CCC(=O)Nc2ccc3c(c2)C(=O)c2cccc4ccnc-3c24)CCCC1
[1]
  Ratio IC50: 1850
[2]
  IC50: 0.00106 µM
[3]
  IC50: 1.96 µM

## C[N+](C)(C)CCCC(=O)Nc1ccc2c(c1)C(=O)c1cccc3ccnc-2c13
[1]
  Ratio IC50: 490
[2]
  IC50: 0.00479 µM
[3]
  IC50: 2.37 µM

## CN(C)CCC(=O)Nc1ccc2c(c1)C(=O)c1cccc3ccnc-2c13
[1]
  Ratio IC50: 58
[2]
  IC50: 0.0339 µM
[3]
  IC50: 1.95 µM

## O=C(CN1CCCC1)Nc1ccc2c(c1)C(=O)c1cccc3ccnc-2c13
[1]
  Ratio IC50: 560
[2]
  IC50: 0.00618 µM
[3]
  IC50: 3.49 µM

## CN(C)CCNCCC(=O)Nc1ccc2c(c1)C(=O)c1cccc3ccnc-2c13
[1]
  Ratio IC50: 45
[2]
  IC50: 0.12 µM
[3]
  IC50: 5.37 µM

## O=C(CCNCCO)Nc1ccc2c(c1)C(=O)c1cccc3ccnc-2c13
[1]
  Ratio IC50: 97
[2]
  IC50: 0.0551 µM
[3]
  IC50: 5.34 µM

## CN(C)CCCC(=O)Nc1ccc2c(c1)C(=O)c1cccc3ccnc-2c13
[1]
  Ratio IC50: 144
[2]
  IC50: 0.0305 µM
[3]
  IC50: 4.4 µM

## C[N+]1(CC(=O)Nc2ccc3c(c2)C(=O)c2cccc4ccnc-3c24)CCCC1
[1]
  Ratio IC50: 1560
[2]
  IC50: 0.00108 µM
[3]
  IC50: 1.69 µM

## O=C(CCCN1CCCC1)Nc1ccc2c(c1)C(=O)c1cccc3ccnc-2c13
[1]
  Ratio IC50: 300
[2]
  IC50: 0.0121 µM
[3]
  IC50: 3.61 µM

## CC[N+](C)(CC)CCCC(=O)Nc1ccc2c(c1)C(=O)c1cccc3ccnc-2c13
[1]
  Ratio IC50: 1980
[2]
  IC50: 0.00262 µM
[3]
  IC50: 5.19 µM

## C[N+]1(CCCC(=O)Nc2ccc3c(c2)C(=O)c2cccc4ccnc-3c24)CCCC1
[1]
  Ratio IC50: 1290
[2]
  IC50: 0.00251 µM
[3]
  IC50: 3.23 µM

## CN(C)CC(=O)Nc1ccc2c(c1)C(=O)c1cccc3ccnc-2c13
[1]
  Ratio IC50: 45
[2]
  IC50: 0.0965 µM
[3]
  IC50: 4.37 µM
